For 9 compounds, ratio, Ki and Activity results are on record in ChEMBL document CHEMBL1139330, “Synthesis and neuropharmacological evaluation of esters of R(-)-N-alkyl-11-hydroxy-2-methoxynoraporphines” (Bioorg Med Chem Lett, 2009).

As usually defined, the Ki is a measure of affinity in units of concentration, obtained from inhibition or displacement. A higher Ki goes with weaker binding.

Structures are written as SMILES. Activity calls are given as the source filed them. No cut-off for these calls is given here. Where only a bound is given, the exact number is not on record here.

The nature of series [1]: Selectivity ratio of Ki for dopamine D1 receptor to Ki for dopamine D2 receptor in rat forebrain.
The target in a further series is D(1A) dopamine receptor (Rattus norvegicus, UniProt P18901). The series can be described thus: Displacement of [3H]SCH23390 from dopamine D1 receptor in rat forebrain. (Loss of bound radioactivity is the signal in a displacement assay; it reports binding, not function.)
For the next series, the target named is D(2) dopamine receptor (Rattus norvegicus, UniProt P61169). Nature of the series: Displacement of [3H]nemonapride from dopamine D2 receptor in rat forebrain.
For series [2], the system named is Rattus norvegicus. The series can be described thus: Induction of locomotor activity in adult rat at 4 umol/kg, ip after 12 to 24 hrs. The format is functional, organism-based.
For series [3], the system named is Rattus norvegicus. The series can be described thus: Toxicity in adult rat assessed as induction of sedation at 4 umol/kg, ip after 12 to 20 hrs. The format is organism-based. The conditions noted are these: in vivo.

D(1A) dopamine receptor, sequence (P18901 whole entry): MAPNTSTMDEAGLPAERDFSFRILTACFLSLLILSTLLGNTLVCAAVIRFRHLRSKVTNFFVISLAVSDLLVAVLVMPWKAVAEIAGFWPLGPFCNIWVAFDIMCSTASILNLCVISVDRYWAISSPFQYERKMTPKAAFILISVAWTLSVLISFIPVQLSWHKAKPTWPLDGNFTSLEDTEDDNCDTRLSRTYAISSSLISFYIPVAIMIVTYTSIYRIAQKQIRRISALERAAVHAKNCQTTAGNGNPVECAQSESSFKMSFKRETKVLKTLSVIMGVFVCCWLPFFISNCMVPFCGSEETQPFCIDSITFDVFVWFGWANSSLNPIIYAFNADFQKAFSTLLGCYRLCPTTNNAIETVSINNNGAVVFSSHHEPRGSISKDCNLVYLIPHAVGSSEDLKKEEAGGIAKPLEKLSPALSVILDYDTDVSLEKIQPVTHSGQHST
D(2) dopamine receptor, sequence (P61169 whole entry): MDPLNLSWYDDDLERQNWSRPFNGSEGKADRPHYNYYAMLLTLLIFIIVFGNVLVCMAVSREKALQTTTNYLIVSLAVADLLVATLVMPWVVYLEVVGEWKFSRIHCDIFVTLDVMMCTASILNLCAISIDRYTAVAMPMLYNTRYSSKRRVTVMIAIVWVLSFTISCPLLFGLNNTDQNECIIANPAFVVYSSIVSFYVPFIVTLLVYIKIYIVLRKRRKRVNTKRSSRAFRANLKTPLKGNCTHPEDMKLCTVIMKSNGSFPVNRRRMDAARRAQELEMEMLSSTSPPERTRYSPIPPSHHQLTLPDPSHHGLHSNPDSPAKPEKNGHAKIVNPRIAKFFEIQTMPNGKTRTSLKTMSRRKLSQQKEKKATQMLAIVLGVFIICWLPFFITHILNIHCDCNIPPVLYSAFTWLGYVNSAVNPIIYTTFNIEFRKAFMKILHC

For the compound `CCCN1CCc2cc(OC)cc3c2[C@H]1Cc1cccc(O)c1-3`, the ratio in series [1] was determined as 38.

`CCCN1CCc2cccc3c2[C@H]1Cc1cccc(OC(C)=O)c1-3`: the ratio in series [1] was > 138. For the same compound, the Ki at D(1A) dopamine receptor was > 10000 nM.

With `COc1cc2c3c(c1)-c1c(cccc1OC(C)=O)C[C@H]3N(C)CC2`, the ratio in series [1] was determined as 3. Further, the Ki at D(1A) dopamine receptor was 526 nM; at D(2) dopamine receptor it was 165 nM.

With `CCCN1CCc2cc(OC)cc3c2[C@H]1Cc1cccc(OC(C)=O)c1-3`, the ratio in series [1] is > 529. Also, the Ki at D(1A) dopamine receptor is > 10000 nM; at D(2) dopamine receptor, 18.9 nM. Besides, the outcome with Rattus norvegicus [2] was Active.

With `CCCCC(=O)Oc1cccc2c1-c1cc(OC)cc3c1[C@@H](C2)N(C)CC3`, in series [1], the ratio turned out to be 8. For the same compound, the Ki at D(1A) dopamine receptor was 1480 nM; at D(2) dopamine receptor, 192 nM.

On to `COc1cc2c3c(c1)-c1c(O)cccc1C[C@H]3N(C)CC2`, for which the ratio in series [1] is 0.2.

Regarding `CCCCC(=O)Oc1cccc2c1-c1cccc3c1[C@@H](C2)N(CCC)CC3`, in series [1], the ratio was > 58. Besides, the Ki at D(1A) dopamine receptor was > 20000 nM.

As to `CCCCC(=O)Oc1cccc2c1-c1cc(OC)cc3c1[C@@H](C2)N(CCC)CC3`, the ratio in series [1] was > 112. For the same compound, the Ki on D(1A) dopamine receptor was > 10000 nM; on D(2) dopamine receptor, 89 nM. The result in the series on Rattus norvegicus [2] was inactive. In the series on Rattus norvegicus [3], the Activity entry is on record as “Toxic”.

In the case of `CN1CCc2cccc3c2[C@H]1Cc1ccc(O)c(O)c1-3` [APOMORPHINE], the ratio in series [1] worked out at 532.
